Measured values from paper PMC9352307 (Biochemistry, 2022).

How the values were obtained:
[1] = molecular target: T1, NADP^+-dependent malic enzyme 1 (ME1) (Homo sapiens, UniProt P48163); test: X-ray crystal structure; assay type: biochemical
T1 sequence (P48163 1-572): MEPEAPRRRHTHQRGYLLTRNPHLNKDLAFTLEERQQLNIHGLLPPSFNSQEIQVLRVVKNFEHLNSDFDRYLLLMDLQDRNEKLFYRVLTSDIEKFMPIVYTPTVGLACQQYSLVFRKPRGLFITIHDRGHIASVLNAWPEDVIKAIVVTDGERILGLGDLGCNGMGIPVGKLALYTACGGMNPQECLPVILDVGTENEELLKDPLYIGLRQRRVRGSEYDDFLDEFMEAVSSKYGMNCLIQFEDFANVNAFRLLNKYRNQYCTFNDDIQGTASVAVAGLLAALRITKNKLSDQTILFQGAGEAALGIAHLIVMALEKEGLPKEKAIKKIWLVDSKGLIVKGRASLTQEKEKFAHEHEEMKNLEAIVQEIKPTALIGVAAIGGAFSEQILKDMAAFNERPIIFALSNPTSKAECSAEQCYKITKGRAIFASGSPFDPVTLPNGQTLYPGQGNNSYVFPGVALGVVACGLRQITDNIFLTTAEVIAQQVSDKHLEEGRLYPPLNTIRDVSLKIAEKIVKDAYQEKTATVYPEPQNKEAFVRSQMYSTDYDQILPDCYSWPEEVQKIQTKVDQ

[2] = molecular target: T1, NADP^+-dependent malic enzyme 1 (ME1); test: Michaelis–Menten enzyme kinetics; assay type: biochemical

How did the IC50 [1] turn out when `CCCc1nc2c(C)ccn(Cc3ccc4nc(-c5ccccc5-c5nnn[nH]5)sc4c3)c-2n1` [AS1134900, 6-[(7-methyl-2-propylimidazo[4,5-b]pyridin-4-yl)methyl]-2-[2-(1H-tetrazol-5-yl)phenyl]-1,3-benzothiazole] was run?
Its IC50 is 730 nM.

For `NC(=O)c1ccc[n+]([C@@H]2O[C@H](COP(=O)(O)OP(=O)(O)OC[C@H]3O[C@@H](n4cnc5c(N)ncnc54)[C@H](OP(=O)(O)O)[C@@H]3O)[C@@H](O)[C@H]2O)c1` [NADP^+], which Michaelis-Menten enzyme kinetics [2] is on record?
Its Michaelis-Menten enzyme kinetics is “enzyme kinetics were examined using various concentrations of malate or NADP^+”.

`O=C(O)CC(O)C(=O)O` (stereo not drawn) [malate] was tested. Which Michaelis-Menten enzyme kinetics [2] did it give?
The Michaelis-Menten enzyme kinetics was “Michaelis–Menten plot of ME1 activity in the presence of AS1134900 vs DL-malate”.
